Data: patent US10183035B2, “Etoposide and prodrugs thereof for use in targeting cancer stem cells” (CELLACT PHARMA GMBH, priority 2013, dated 2019)

Key:
[1] = target: MDR-1 gene product P-glycoprotein (Homo sapiens, UniProt P08183); assay: P-glycoprotein-mediated substrate efflux; format: cell-based
cells = assay: apoptosis induction / cell cycle measurements in cells; format: cell-based

Sequence of MDR-1 gene product P-glycoprotein (P08183 whole entry): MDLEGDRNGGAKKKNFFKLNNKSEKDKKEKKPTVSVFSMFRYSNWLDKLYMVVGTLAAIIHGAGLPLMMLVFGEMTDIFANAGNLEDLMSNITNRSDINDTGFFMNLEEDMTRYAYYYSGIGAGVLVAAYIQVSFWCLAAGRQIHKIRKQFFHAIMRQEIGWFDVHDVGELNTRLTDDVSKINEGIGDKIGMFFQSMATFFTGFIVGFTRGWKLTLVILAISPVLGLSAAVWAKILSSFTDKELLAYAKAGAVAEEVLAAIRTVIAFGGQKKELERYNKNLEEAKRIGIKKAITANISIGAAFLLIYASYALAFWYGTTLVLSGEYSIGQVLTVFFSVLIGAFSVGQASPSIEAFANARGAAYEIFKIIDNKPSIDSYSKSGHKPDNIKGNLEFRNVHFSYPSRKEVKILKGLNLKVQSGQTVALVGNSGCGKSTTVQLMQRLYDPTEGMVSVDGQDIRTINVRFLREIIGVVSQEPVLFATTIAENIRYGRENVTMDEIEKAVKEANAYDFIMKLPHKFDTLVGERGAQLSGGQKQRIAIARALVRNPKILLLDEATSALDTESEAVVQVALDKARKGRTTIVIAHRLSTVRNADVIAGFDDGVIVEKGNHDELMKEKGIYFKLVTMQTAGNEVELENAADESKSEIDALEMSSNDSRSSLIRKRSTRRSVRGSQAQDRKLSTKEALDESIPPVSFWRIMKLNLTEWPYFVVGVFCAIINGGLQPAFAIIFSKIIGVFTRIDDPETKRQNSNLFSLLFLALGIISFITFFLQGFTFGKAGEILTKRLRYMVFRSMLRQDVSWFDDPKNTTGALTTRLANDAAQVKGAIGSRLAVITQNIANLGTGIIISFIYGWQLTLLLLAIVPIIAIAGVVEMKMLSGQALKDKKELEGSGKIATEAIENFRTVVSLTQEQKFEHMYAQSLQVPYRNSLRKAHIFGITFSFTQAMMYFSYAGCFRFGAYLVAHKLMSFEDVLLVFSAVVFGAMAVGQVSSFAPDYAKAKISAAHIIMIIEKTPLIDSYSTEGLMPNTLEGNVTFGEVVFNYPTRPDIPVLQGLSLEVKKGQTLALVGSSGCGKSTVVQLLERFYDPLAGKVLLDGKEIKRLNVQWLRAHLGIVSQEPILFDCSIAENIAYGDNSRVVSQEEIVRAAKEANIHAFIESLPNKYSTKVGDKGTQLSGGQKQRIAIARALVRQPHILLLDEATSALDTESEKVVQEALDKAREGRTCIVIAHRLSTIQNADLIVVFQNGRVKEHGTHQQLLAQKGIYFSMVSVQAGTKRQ

effect on P-glycoprotein [1]: ineffective
retention in cells / efflux [1]: pumped out of the cells
Compound: COc1cc([C@@H]2c3cc4c(cc3[C@@H](O[C@@H]3O[C@@H]5CO[C@@H](C)O[C@H]5[C@H](O)[C@H]3O)[C@H]3COC(=O)[C@H]23)OCO4)cc(OC)c1O [etoposide]
apoptosis is complete after (cells): 48 h
